Targets include CAMKK1 (Homo sapiens, UniProt Q8N5S9); DMPK (Homo sapiens, UniProt Q09013); CDK9 (Homo sapiens, UniProt P50750); PKMYT1 (Homo sapiens, UniProt Q99640); BIKE (Homo sapiens, UniProt Q9NSY1); WNK1 (Homo sapiens, UniProt Q9H4A3); CSNK2A2 (Homo sapiens, UniProt P19784); WEE2 (Homo sapiens, UniProt P0C1S8); KIT(D816V) (Homo sapiens, UniProt P10721, D816V); CDK5 (Homo sapiens, UniProt Q00535); MST1 (Homo sapiens, UniProt Q13043); BRSK2 (Homo sapiens, UniProt Q8IWQ3); YANK2 (Homo sapiens, UniProt Q9NY57); BTK (Homo sapiens, UniProt Q06187); IKK-epsilon (Homo sapiens, UniProt Q14164); PIK3CA(E545K) (Homo sapiens, UniProt P42336, E545K).

Holding throughout (test): KINOMEscan
Common to all, as to settings: read-out: Percent Control

Assay [1] has as its target EGFR(L747-E749del, A750P) (Homo sapiens, UniProt P00533, A750P/DEL747-749).
Description: (§1) The kinase engagement assay (KINOMEscan®) was performed by DiscoverX assessing binding abilities toward a set of kinases.
For assay [2], the target named is ABL1(H396P)-nonphosphorylated (Homo sapiens, UniProt P00519, H396P).
Description: as §1

We go through one compound from US20250312462A1, “PAK1 DEGRADERS AND METHODS OF USE THEREOF” (INSTITUTE FOR CANCER RESEARCH D/B/A THE RESEARCH INSTITUTE …, priority 2022, published 2025).

Sequence of PIK3CA(E545K) (P42336 whole entry E545K): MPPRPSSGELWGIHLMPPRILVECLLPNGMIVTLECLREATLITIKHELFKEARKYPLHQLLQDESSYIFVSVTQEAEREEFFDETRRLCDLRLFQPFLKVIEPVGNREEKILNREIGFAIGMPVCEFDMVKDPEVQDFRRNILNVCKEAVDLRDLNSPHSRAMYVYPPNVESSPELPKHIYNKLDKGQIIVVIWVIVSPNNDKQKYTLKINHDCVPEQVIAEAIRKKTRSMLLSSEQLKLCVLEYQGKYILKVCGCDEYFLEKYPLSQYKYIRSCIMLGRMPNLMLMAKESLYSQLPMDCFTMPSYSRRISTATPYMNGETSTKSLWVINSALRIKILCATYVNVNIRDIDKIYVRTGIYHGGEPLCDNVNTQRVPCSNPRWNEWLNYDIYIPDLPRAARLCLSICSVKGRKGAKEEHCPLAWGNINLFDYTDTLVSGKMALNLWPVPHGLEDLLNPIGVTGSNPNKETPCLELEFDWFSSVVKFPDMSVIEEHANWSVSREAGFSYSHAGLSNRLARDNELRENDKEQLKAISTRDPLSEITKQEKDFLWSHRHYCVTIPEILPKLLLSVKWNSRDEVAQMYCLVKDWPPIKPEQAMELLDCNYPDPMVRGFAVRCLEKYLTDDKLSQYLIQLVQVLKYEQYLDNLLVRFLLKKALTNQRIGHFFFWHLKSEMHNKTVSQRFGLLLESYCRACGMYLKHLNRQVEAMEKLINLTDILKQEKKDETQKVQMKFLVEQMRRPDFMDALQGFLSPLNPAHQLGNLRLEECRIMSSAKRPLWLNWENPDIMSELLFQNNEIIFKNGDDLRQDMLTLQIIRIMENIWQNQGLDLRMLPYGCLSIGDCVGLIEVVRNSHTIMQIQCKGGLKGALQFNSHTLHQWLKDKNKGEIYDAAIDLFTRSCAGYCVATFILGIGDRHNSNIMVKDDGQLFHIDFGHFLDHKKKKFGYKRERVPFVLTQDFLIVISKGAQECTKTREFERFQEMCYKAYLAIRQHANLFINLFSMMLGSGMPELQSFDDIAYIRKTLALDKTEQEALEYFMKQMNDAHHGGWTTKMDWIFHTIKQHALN
Sequence of WEE2 (P0C1S8 whole entry): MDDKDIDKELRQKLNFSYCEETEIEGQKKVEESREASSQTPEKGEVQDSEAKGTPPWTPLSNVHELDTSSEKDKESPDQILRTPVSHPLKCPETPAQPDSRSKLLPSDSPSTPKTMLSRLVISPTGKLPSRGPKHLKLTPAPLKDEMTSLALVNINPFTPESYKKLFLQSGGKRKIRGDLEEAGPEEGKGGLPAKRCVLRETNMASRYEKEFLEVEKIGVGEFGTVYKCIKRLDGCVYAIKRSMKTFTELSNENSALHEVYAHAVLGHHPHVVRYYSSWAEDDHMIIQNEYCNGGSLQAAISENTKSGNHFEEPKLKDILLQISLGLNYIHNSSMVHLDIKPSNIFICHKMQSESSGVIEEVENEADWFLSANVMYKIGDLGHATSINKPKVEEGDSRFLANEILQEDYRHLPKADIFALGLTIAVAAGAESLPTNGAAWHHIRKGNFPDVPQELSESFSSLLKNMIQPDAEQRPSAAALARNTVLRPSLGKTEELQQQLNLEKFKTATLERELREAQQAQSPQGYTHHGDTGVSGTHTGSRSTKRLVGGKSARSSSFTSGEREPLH
Sequence of KIT(D816V) (P10721 26-976 D816V): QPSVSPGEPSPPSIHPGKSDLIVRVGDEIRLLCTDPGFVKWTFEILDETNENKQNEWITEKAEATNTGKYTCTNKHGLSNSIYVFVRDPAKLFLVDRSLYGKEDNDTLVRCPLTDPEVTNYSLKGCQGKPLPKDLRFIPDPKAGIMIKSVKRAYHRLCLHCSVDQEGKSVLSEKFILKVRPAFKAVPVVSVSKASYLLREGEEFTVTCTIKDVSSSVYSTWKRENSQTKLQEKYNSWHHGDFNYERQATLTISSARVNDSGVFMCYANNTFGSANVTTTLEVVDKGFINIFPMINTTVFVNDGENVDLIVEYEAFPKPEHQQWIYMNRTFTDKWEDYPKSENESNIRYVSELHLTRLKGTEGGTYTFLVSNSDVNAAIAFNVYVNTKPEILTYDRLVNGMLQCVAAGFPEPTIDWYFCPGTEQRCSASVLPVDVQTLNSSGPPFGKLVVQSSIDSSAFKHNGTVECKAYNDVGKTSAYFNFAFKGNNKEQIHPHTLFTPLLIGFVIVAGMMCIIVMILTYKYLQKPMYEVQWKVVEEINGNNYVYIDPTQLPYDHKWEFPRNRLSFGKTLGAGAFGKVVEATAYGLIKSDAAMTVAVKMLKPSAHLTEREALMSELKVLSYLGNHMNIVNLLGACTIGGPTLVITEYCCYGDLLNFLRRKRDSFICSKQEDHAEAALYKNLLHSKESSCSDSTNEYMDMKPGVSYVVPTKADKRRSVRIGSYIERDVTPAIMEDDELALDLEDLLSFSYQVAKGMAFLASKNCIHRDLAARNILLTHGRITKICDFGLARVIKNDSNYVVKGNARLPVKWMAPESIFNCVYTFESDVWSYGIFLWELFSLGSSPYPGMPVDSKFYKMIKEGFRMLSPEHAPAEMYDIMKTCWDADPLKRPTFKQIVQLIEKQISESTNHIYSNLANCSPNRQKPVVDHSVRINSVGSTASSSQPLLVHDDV
Sequence of CDK5 (Q00535 whole entry): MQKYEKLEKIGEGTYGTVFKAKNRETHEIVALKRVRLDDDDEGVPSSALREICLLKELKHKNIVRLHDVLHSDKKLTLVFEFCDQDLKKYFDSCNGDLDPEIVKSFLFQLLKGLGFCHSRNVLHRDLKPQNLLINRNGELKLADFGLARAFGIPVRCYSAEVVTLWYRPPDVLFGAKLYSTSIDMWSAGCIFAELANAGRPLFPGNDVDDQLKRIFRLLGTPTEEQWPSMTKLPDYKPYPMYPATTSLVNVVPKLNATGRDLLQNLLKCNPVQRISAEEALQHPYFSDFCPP
Sequence of IKK-epsilon (Q14164 whole entry): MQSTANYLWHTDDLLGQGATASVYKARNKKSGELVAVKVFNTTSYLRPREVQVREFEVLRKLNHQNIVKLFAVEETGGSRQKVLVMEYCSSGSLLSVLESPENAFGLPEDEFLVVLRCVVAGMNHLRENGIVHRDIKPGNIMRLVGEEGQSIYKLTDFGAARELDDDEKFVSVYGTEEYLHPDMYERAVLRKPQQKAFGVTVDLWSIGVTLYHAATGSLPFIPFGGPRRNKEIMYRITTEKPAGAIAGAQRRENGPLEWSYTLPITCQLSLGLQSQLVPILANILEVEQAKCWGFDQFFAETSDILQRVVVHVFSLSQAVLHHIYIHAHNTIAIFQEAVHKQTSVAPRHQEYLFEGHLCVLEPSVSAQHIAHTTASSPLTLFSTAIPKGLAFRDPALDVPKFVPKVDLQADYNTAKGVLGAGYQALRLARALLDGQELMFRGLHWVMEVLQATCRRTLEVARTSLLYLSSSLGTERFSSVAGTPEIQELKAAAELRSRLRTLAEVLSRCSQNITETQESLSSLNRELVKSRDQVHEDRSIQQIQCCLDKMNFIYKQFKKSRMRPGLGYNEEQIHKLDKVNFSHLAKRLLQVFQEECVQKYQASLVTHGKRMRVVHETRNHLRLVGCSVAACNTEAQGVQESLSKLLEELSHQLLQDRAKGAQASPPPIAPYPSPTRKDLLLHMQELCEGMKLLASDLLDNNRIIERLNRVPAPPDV
Sequence of CDK9 (P50750 whole entry): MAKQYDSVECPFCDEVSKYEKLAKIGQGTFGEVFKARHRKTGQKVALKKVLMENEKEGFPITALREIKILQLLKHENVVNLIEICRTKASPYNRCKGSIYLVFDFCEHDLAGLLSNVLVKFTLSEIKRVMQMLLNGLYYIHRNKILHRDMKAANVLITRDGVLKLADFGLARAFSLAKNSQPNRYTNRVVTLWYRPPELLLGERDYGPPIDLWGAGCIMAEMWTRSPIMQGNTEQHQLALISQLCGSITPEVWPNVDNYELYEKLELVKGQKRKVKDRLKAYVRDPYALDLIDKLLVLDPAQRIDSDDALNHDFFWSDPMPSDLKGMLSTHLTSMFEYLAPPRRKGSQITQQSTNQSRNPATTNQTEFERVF
Sequence of BTK (Q06187 whole entry): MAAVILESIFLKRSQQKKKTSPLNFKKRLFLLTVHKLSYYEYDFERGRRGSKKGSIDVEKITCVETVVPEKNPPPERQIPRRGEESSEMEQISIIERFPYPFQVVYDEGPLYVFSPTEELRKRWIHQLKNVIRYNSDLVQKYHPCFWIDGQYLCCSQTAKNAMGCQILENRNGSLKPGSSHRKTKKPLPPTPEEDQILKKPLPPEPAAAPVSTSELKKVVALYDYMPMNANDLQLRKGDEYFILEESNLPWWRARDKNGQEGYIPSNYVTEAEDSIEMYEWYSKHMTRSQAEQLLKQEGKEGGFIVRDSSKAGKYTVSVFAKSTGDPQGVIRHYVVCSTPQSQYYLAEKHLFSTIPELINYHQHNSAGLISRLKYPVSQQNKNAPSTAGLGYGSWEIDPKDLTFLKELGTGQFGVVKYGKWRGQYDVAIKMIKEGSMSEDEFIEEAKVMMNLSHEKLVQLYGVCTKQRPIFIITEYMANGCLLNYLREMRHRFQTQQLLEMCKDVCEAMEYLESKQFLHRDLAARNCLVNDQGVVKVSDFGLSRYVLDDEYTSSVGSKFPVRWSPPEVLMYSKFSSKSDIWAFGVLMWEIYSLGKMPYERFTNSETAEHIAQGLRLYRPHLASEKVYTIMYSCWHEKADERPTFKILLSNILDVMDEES
Sequence of YANK2 (Q9NY57 whole entry): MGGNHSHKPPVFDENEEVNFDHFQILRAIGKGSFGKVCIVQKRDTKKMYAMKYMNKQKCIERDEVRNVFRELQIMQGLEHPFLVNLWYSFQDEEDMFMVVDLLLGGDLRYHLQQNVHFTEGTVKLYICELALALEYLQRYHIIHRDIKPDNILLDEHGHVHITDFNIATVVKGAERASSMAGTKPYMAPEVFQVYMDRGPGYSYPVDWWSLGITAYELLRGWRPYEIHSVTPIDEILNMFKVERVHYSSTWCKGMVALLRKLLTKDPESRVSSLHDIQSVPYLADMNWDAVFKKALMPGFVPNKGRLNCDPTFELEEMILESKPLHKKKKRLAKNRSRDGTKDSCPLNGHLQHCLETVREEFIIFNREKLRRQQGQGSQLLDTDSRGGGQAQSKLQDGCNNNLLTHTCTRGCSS
Description for BIKE: as §1
Description for BRSK2: as §1
Description for BTK: as §1
Description for CAMKK1: as §1
Description for CDK5: as §1
Description for CDK9: as §1
Description for CSNK2A2: as §1
Description for DMPK: as §1
Description for IKK-epsilon: as §1
Description for KIT(D816V): as §1
Description for MST1: as §1
Description for PIK3CA(E545K): as §1
Description for PKMYT1: as §1
Description for WEE2: as §1
Description for WNK1: as §1
Description for YANK2: as §1

On to `O=C1CCC(N2C(=O)c3cccc(NCCCCCCCCNC(=O)N4CC[C@H](NC5=Nc6cc(F)ccc6N(CC(F)F)c6ccc(Cl)cc65)C4)c3C2=O)C(=O)N1` (stereo partly drawn) [BJG-05-039, (3S)-3-((2-Chloro-5-(2,2-difluoroethyl)-8-fluoro-5H-dibenzo[b,e][1,4]diazepin-11-yl)amino)-N-(8-((2-(2,6-dioxopiperidin-3-yl)-1,3-dioxoisoindolin-4-yl)amino)octyl)pyrrolidine-1-carboxamide], for which the remaining binding at 10 µM on CAMKK1 amounted to 52%; at DMPK it was 52%; at CDK9 it was 53%; on PKMYT1, 54%; at BIKE it was 74%; on WNK1, 74%. Also, the remaining binding at 10 µM on CSNK2A2 stood at 78%; in assay [1], 78%; at WEE2, 78%; at KIT(D816V), 87%; at CDK5 it was 90%; on MST1, 90%. The remaining binding at 10 µM in assay [2] came to 98%; at BRSK2, 99%; at YANK2, 99%; on BTK it was 100%; on IKK-epsilon it was 100%; on PIK3CA(E545K), 100%.
